Each structure is given as a SMILES string. A value given as a limit tells only on which side of the number the result lay.

Assay [1] deals with T1, Farnesyl pyrophosphate synthase (Homo sapiens) (UniProt P14324).
T1 sequence (whole entry): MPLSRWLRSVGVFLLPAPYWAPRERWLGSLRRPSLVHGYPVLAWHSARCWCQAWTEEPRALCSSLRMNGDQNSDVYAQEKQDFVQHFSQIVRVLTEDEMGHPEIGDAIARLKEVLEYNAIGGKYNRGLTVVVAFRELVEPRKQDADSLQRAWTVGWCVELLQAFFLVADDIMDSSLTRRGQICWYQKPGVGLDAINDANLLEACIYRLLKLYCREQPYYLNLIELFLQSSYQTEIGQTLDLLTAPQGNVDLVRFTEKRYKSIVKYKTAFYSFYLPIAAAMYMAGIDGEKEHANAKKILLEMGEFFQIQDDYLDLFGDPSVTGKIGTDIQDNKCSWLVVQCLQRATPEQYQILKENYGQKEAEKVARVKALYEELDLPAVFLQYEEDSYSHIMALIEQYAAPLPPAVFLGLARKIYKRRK
As to the kind of experiment: Inhibition of farnesyl diphosphate synthase at 35 nM.

Assay [2] concerns Dictyostelium discoideum. As to the kind of experiment: Antimicrobial activity against Dictyostelium discoideum. The assay is classed as functional, organism-based.
Assay [3] addresses T1, Farnesyl pyrophosphate synthase (Homo sapiens). As to the kind of experiment: Inhibition of farnesyl diphosphate synthase at 30 nM.

Compound `CC[n+]1cccc(CC(P(=O)([O-])O)P(=O)(O)O)c1` (stereo unspecified) had an inhibition in assay [1] of 59%. Besides, half-maximal inhibition in assay [2] (IC50) was put at 27 µM.
On to `O=P(O)(O)C(O)(CC1CCCNC1)P(=O)(O)O` (stereo unspecified), for which the inhibition in assay [3] was found to be 58%. For the same compound, the 50% inhibitory concentration (IC50) in assay [2] worked out at 30 µM.
Turning to `O=P(O)(O)C(O)(Cc1ccccc1)P(=O)(O)O`, the IC50 in assay [2] is < 240 µM.
Still for that read-out and setting: the value for `Nc1ccccc1CC(O)(P(=O)(O)O)P(=O)(O)O` was 18 µM.

By inhibition is commonly meant the relative decrease from the control value, in per cent. By IC50 is commonly meant the point on the concentration scale where inhibition reaches its midpoint.

The values above are taken from ChEMBL document CHEMBL1155115 (J Med Chem, 2008).
